Measurements published in patent publication US12577278B2, “KRAS G12V mutant binds to JAK1, inhibitors, pharmaceutical compositions, and methods related thereto” (Emory University, priority 2019, dated 2026).
Where a SMILES comes first, the peptide text is derived from it.

What was measured:
[1] = biological target: T1, KRAS-G12V-JAK1 interaction (Homo sapiens, UniProt P01116, G12V); experiment: TR-FRET assay of the KRAS-G12V/JAK1 interaction in HEK293T lysate; format: binding; conditions: FIG. 2B, 2D
Experimental: TR-FRET titration assay was performed with HEK293T lysate that had been co-transfected with His-KRAS-G12V and Flag-JAK1. TR-FRET signals were recorded upon treatment with the synthetic peptide 8-mer (RasKi) or the 9-mer control (0 to 50 μM).
Cell lysate from HEK293T cells co-expressing GST-KRAS-G12V and Venus-Flag-JAK1 was treated with the synthetic peptide 8-mer WT ([…], SEQ ID NO: 1) or an 8-mer with K606E mutation. A panel of mutations in 8-mer (5 μM) were tested including M603A ([…], SEQ ID NO: 2).

[2] = biological target: T1, KRAS-G12V-JAK1 interaction; experiment: GST-affinity pull-down assay; format: binding
[3] = cell permeability of the peptide; format: cell-based
[4] = tested on: IFN-γ stimulated STAT1 transcription; experiment: STAT1 transcription dual-luciferase assay in HEK293T cells; format: cell-based; conditions: JAK1 and KRAS-G12V co-expressed with RasKi, 1 ng/ml IFN-γ 18 hours, FIG. 3A
Experimental: STAT1 transcriptional activity was tested in HEK293T cells with a dual-luciferase assay. Luciferase activity was measured upon co-expression of JAK1 and KRAS WT, G12V, or G12V with 8-mer. Fold of Control (FOC) with IFN-γ stimulation was calculated comparing to samples without IFN-γ stimulation. Cells were treated with 1 ng/ml IFN-γ for 18 hours after 24 hours of transfection. Dual-luciferase assays were performed, and relative luciferase activity was measured normalized to Renilla luciferase control.

[5] = tested on: JAK-STAT pathway; experiment: Western blot of JAK-STAT pathway signaling in HEK293T cells; format: cell-based; conditions: HEK293T with KRAS-G12V, FIG. 3B
Experimental: Western Blot was performed to detect the JAK-STAT pathway signaling change in HEK293T cells with overexpressed JAK1 along with KRAS-WT, G12V, or G12V with 8-mer, with or without IFN-γ stimulation (1 ng/ml, 30 minutes). FOC bar graphs show the levels of phosphorylated STAT1 and STAT3 phosphorylation, and the expression of IRF1 and TAP1 after IFN-γ stimulation in comparison to that without stimulation.

[6] = tested on: JAK-STAT pathway; experiment: IFN-γ stimulated signaling under endogenous conditions in SW48 KRAS isogenic cell lines (luciferase, Western blot, RT-qPCR); format: cell-based; conditions: SW48 G12V cells, IFN-γ 1 ng/ml 18 hours, FIG. 3E
Experimental: FOC (Fold of control) of STAT1 transcriptional activity was calculated in SW48 (KRAS isogenic colon cancer) WT and G12V cell lines with IFN-γ stimulation comparing to that without IFN-γ stimulation. RasKi was transduced into G12V cells by lentivirus. Cells were treated with IFN-γ (1 ng/ml) for 18 hours after 24 hours of transduction. Dual-luciferase assays were performed, and relative luciferase activity was measured, normalized to Renilla luciferase control.
Western Blot was performed to detect changes in the JAK-STAT pathway in SW48 cell lines (KRAS isogenic colon cancer with G12V), with or without IFN-γ (1 ng/ml) for 30 minutes. FOC bar graphs show STAT1/3 phosphorylation, IRF1 and TAP1 expression in three groups after IFN-γ stimulation comparing to basal level.
Expression of TAP1, IRF1, PD-L1 mRNA was normalized to GAPDH in SW48 cell lines as detected using RT-qPCR (reverse transcription-quantitative polymerase chain reaction). Cells were treated with IFN-γ (1 ng/ml) for 18 hours.

[7] = tested on: KRAS isogenic cell lines SW48, LIM1215, H838; experiment: IFNγ-induced cell death in KRAS-WT and G12V isogenic cells; format: cell-based; conditions: FIG. 4A; for cell killing without IFNγ: no IFNγ
Description: Bar graphs show the cell death of three pairs of KRAS isogenic cell lines SW48, LIM1215, H838 under different treatment conditions.
Bar graphs show cell death in three KRAS isogenic G12V cell lines in response to IFNγ stimulation and 8-mer peptide, with or without treatment with a JAK1 inhibitor or an IFNγ-receptor antagonist.

[8] = tested on: KRAS isogenic cell lines SW48, LIM1215, H838; experiment: NK92 cell-induced death of KRAS-WT and G12V isogenic cells; format: cell-based; conditions: FIG. 4C
Description: Dose-dependent killing curves of RasKi/8-mer peptide are shown for KRAS WT and G12V isogenic SW48, LIM1215, H838 cell lines with or without NK92 cell stimulation from cell viability readouts.
RasKi dose-dependent cell death curves were established for KRAS isogenic cell lines treated with JAK1 inhibitor or IFNγ-receptor antagonist in response to NK92 cell stimulation. Bar graphs show integrated results from area under curve (AUC) data of each treatment condition.

[9] = tested on: HLA-A2+ KRAS WT/G12V cancer cells; experiment: anti-NY-ESO-1 CD8+ T cell-mediated killing, CellTiter Blue viability; format: cell-based; conditions: under T-cell stimulation; FIG. 5A-5F
Experimental: The lentivirus-transduced HLA-A2+ parental KRAS WT cells, SW48-A2+ and their KRAS G12V knock-in isogenic cells were co-cultured with anti-NY-ESO-1 CD8+ T cells, or treated with RasKi, RasKi-K606E, or in combinations as indicated. The cell viability after treatment was measured using CellTiter Blue™ reagent. The growth inhibition was normalized to the untreated control.
The lentivirus-transduced HLA-A2+ patient derived KRAS WT colon cancer cells (SW48-A2+, LIM1215-A2+ and Caco-2-A2+) and KRASG12V colon cancer cells (SW403-A2+, SW480-A2+ and SW620-A2+) were co-cultured with anti-NY-ESO-1 CD8+ T cells, or treated with RasKi, RasKi-K606E, or in combinations as indicated. The cell viability after treatment was measured using CellTiter Blue™ reagent. The growth inhibition was normalized to the untreated control.
The G12V isogenic cells (SW48G12V-A2+, LIM1215G12V-A2+ and H838G12V-A2+) and were co-cultured with anti-NY-ESO-1 CD8+ T cells and treated with RasKi, or in addition with JAK inhibitor (JAKi) or IFNγ receptor antagonist (IFNγRa) as indicated. The cell viability after treatment was measured using CellTiter Blue™ reagent. The growth inhibition was normalized to the untreated control. Each dot represents an individual cell line.
A gene-engineered CD8+ T cell was produced to specifically target an antigen expressed in an HLA-class I-restricted manner. […]

[10] = biological target: T1, KRAS-G12V-JAK1 interaction; experiment: GST-affinity pull-down assay under endogenous conditions; format: binding; design: endogenous in cells; conditions: FIG. 2F

disruption of the JAK1/KRAS-G12V interaction [1]: effectively disrupt
competition with JAK1 full length for binding to KRAS-G12V ([2]; GST pull-down, FIG. 2C, 2E): can compete
binding to KRAS-G12V ([2]; JAK1 truncation mapping): sufficient for KRAS-G12V binding
cell permeability [3]: cell permeable
disruption of the KRAS-G12V/JAK1 interaction at endogenous level [10]: effectively disrupt the interaction
SMILES: CSCC[C@H](N)C(=O)N[C@@H](CC(=O)O)C(=O)N[C@@H](Cc1ccc(O)cc1)C(=O)N[C@@H](CCCCN)C(=O)N[C@@H](CC(=O)O)C(=O)N[C@@H](CC(=O)O)C(=O)N[C@@H](CCC(=O)O)C(=O)NCC(=O)O [RasKi] (H-MDYKDDEG-OH; N-terminus and C-terminus assumed)
STAT1 transcriptional activity upon IFNγ treatment [4]: completely reversed the KRAS-G12V effect
STAT1/3 phosphorylation ([5]; IFN-γ 1 ng/ml, 30 minutes): increased
expression of IRF1 and TAP1 proteins ([5]; IFN-γ stimulation): increased
expression of mRNAs for IRF1, TAP1, and PD-L1 [6]: increased
cell killing without IFNγ [7]: no difference
cell killing without IFNγ ([7]; listed as 8-mer): No cell killing effect
IFNγ-induced killing effect in cells with KRAS-G12V ([7]; with IFNγ, compared to KRAS-WT cells): drastically increased
killing of cells with WT KRAS together with NK92 cells ([8]; KRAS WT cells, NK92 co-culture): but not cells with WT KRAS
killing of cancer cells with KRAS-G12V together with NK92 cells ([8]; KRAS-G12V cells, NK92 co-culture): synergized with NK92 cells to induce dose-dependent killing
viability of cancer cells, peptide per se ([8]; WT or G12V cells, without NK92 cells): had no effect
T-cell killing in G12V cells [9]: enhanced T-cell killing
